{
  "source": "paper PMC10510716",
  "key": {"[1]": {"experiment": "Paal-Knorr pyrrole formation between a side-chain 1,4-diketone (DOP1, unmasked from 5-methylfuran in TFA/m-cresol 9:1) and a side-chain hydrazide (Nu2) or aminooxy group (Nu5); crude redissolved in mQ water", "settings": "the molecule shown is the open-chain precursor, pH ~2.5, 5.0 mM"}, "[2]": {"experiment": "Paal-Knorr-like closure of a side-chain 1,4-diketone (DOP, unmasked from 5-substituted furan in TFA/m-cresol 9:1) with a side-chain alkylhydrazine (Nu1), then air oxidation to a pyridazinium staple; crude redissolved in mQ water, pH adjusted to ~7.5", "settings": "the molecule shown is the open-chain precursor, 29-membered ring, pH ~7.5, 5.0 mM"}},
  "data": [
    {"smiles": "CC(=O)CCC(=O)CCC(=O)NCCC[C@H](NC(C)=O)C(=O)N[C@@H](Cc1c[nH]c2ccccc12)C(=O)N[C@@H](CCCNC(=N)N)C(=O)NCC(=O)N[C@@H](CC(=O)O)C(=O)N[C@@H](Cc1ccc(O)cc1)C(=O)N[C@@H](CO)C(=O)N[C@@H](CCCNC(=O)CON)C(N)=O", "note": "[Ac-Orn(4,7-dioxooctanoyl)*-W-R-G-D-Y-S-Orn(COCH2ONH2)*-NH2]", "values": [
      {"measurement": "ring closure, overall yield", "setting": "[1]; 38-membered ring", "value": 5.2, "unit": "%"}
    ]},
    {"smiles": "CC[C@H](C)[C@H](NC(=O)[C@H](CCCNC(=O)CCC(=O)CCC(C)=O)NC(=O)[C@H](CCCNC(=N)N)NC(=O)CNC(=O)[C@H](CCCCN)NC(=O)[C@H](CC(C)C)NC(=O)[C@H](Cc1c[nH]cn1)NC(=O)CNC(=O)[C@@H]1CCCN1C(C)=O)C(=O)NCC(=O)N[C@@H](CC(C)C)C(=O)N[C@@H](Cc1c[nH]c2ccccc12)C(=O)N[C@@H](Cc1ccc(O)cc1)C(=O)N[C@@H](C)C(=O)N[C@@H](CCCNC(=O)CON)C(=O)N[C@@H](CCCCN)C(=O)N[C@@H](CCC(N)=O)C(=O)NCC(=O)N[C@@H](CCC(N)=O)C(=O)N[C@@H](CCCCN)C(=O)N[C@@H](CC(N)=O)C(=O)N[C@@H](CCCCN)C(N)=O", "values": [
      {"measurement": "ring closure, overall yield", "setting": "[1]; 38-membered ring", "value": 13.9, "unit": "%"}
    ]},
    {"smiles": "CC(=O)CCC(=O)CCC(=O)NCCC[C@H](NC(C)=O)C(=O)N[C@@H](Cc1c[nH]c2ccccc12)C(=O)N[C@@H](CCCNC(=N)N)C(=O)NCC(=O)N[C@@H](CC(=O)O)C(=O)N[C@@H](Cc1ccc(O)cc1)C(=O)N[C@@H](CO)C(=O)N[C@@H](CCCNC(=O)CCC(=O)NN)C(N)=O", "values": [
      {"measurement": "ring closure, overall yield", "setting": "[1]; 40-membered ring", "value": 4.3, "unit": "%"}
    ]},
    {"smiles": "CC[C@H](C)[C@H](NC(=O)[C@H](CCC(=O)O)NC(=O)[C@H](CCCNC(=N)N)NC(=O)CNC(=O)[C@H](CCCCN)NC(=O)[C@H](CC(C)C)NC(=O)[C@H](Cc1c[nH]cn1)NC(=O)CNC(=O)[C@@H]1CCCN1C(C)=O)C(=O)NCC(=O)N[C@@H](CC(C)C)C(=O)N[C@@H](Cc1c[nH]c2ccccc12)C(=O)N[C@@H](Cc1ccc(O)cc1)C(=O)N[C@@H](C)C(=O)N[C@@H](CCCNC(=O)CCC(=O)NN)C(=O)N[C@@H](CCCCN)C(=O)N[C@@H](CCC(N)=O)C(=O)NCC(=O)N[C@@H](CCCNC(=O)CCC(=O)CCC(C)=O)C(=O)N[C@@H](CCCCN)C(=O)N[C@@H](CC(N)=O)C(=O)N[C@@H](CCCCN)C(N)=O", "values": [
      {"measurement": "ring closure, overall yield", "setting": "[1]; 31-membered ring", "value": 8.24, "unit": "%"}
    ]},
    {"smiles": "CC[C@H](C)[C@H](NC(=O)[C@H](CCC(=O)O)NC(=O)[C@H](CCCNC(=N)N)NC(=O)CNC(=O)[C@H](CCCCN)NC(=O)[C@H](CC(C)C)NC(=O)[C@H](Cc1c[nH]cn1)NC(=O)CNC(=O)[C@@H]1CCCN1C(C)=O)C(=O)NCC(=O)N[C@@H](CC(C)C)C(=O)N[C@@H](Cc1c[nH]c2ccccc12)C(=O)N[C@@H](Cc1ccc(O)cc1)C(=O)N[C@@H](C)C(=O)N[C@@H](CCCNC(=O)CON)C(=O)N[C@@H](CCCCN)C(=O)N[C@@H](CCC(N)=O)C(=O)NCC(=O)N[C@@H](CCCNC(=O)CCC(=O)CCC(C)=O)C(=O)N[C@@H](CCCCN)C(=O)N[C@@H](CC(N)=O)C(=O)N[C@@H](CCCCN)C(N)=O", "values": [
      {"measurement": "ring closure, overall yield", "setting": "[1]; 29-membered ring", "value": 3.48, "unit": "%"}
    ]},
    {"smiles": "CC[C@H](C)[C@H](NC(=O)[C@H](CCCNC(=O)CCC(=O)CCC(C)=O)NC(=O)[C@H](CCCNC(=N)N)NC(=O)CNC(=O)[C@H](CCCCN)NC(=O)[C@H](CC(C)C)NC(=O)[C@H](Cc1c[nH]cn1)NC(=O)CNC(=O)[C@@H]1CCCN1C(C)=O)C(=O)NCC(=O)N[C@@H](CC(C)C)C(=O)N[C@@H](Cc1c[nH]c2ccccc12)C(=O)N[C@@H](Cc1ccc(O)cc1)C(=O)N[C@@H](C)C(=O)N[C@@H](CCCNC(=O)CCC(=O)NN)C(=O)N[C@@H](CCCCN)C(=O)N[C@@H](CCC(N)=O)C(=O)NCC(=O)N[C@@H](CCC(N)=O)C(=O)N[C@@H](CCCCN)C(=O)N[C@@H](CC(N)=O)C(=O)N[C@@H](CCCCN)C(N)=O", "values": [
      {"measurement": "ring closure, overall yield", "setting": "[1]; 40-membered ring", "value": 12.6, "unit": "%"}
    ]},
    {"smiles": "CC(=O)CCC(=O)CCC(=O)NCCC[C@H](NC(=O)[C@H](Cc1ccc(O)cc1)NC(C)=O)C(=O)N[C@@H](CCCNC(=N)N)C(=O)NCC(=O)N[C@@H](CC(=O)O)C(=O)N[C@@H](CCCNC(=O)CON)C(=O)N[C@@H](CO)C(=O)N[C@@H](Cc1c[nH]c2ccccc12)C(N)=O", "note": "[Ac-Y-Orn(4,7-dioxooctanoyl)*-R-G-D-Orn(COCH2ONH2)*-S-W-NH2]", "values": [
      {"measurement": "ring closure, overall yield", "setting": "[1]; 29-membered ring", "value": 8.1, "unit": "%"}
    ]},
    {"smiles": "CC[C@H](C)[C@H](NC(=O)[C@H](CCC(=O)O)NC(=O)[C@H](CCCNC(=N)N)NC(=O)CNC(=O)[C@H](CCCCN)NC(=O)[C@H](CC(C)C)NC(=O)[C@H](Cc1c[nH]cn1)NC(=O)CNC(=O)[C@@H]1CCCN1C(C)=O)C(=O)NCC(=O)N[C@@H](CC(C)C)C(=O)N[C@@H](Cc1c[nH]c2ccccc12)C(=O)N[C@@H](Cc1ccc(O)cc1)C(=O)N[C@@H](C)C(=O)N[C@@H](CCCNC(=O)CNN)C(=O)N[C@@H](CCCCN)C(=O)N[C@@H](CCC(N)=O)C(=O)NCC(=O)N[C@@H](CCCNC(=O)CCC(=O)CCC(=O)c1ccc(OC)cc1)C(=O)N[C@@H](CCCCN)C(=O)N[C@@H](CC(N)=O)C(=O)N[C@@H](CCCCN)C(N)=O", "values": [
      {"measurement": "ring closure, overall yield", "setting": "[2]", "value": 10.9, "unit": "%"}
    ]},
    {"smiles": "CC[C@H](C)[C@H](NC(=O)[C@H](CCCNC(=O)CNN)NC(=O)c1ccc(NC(C)=O)cc1)C(=O)N[C@@H](C)C(=O)N[C@@H](C)C(=O)N[C@@H](CC(C)C)C(=O)N[C@@H](CCCCN)C(=O)N[C@@H](CCC(=O)O)C(=O)N[C@@H](CCCCN)C(=O)N[C@H](C(=O)N[C@@H](CCCNC(=O)CNN)C(=O)N[C@@H](C)C(=O)N[C@@H](CC(C)C)C(=O)N[C@@H](CCCCN)C(=O)N[C@@H](CCCNC(=O)CCC(=O)CCC(C)=O)C(=O)N[C@@H](CCCCN)C(=O)N[C@H](C(=O)N[C@@H](C)C(=O)N[C@@H](C)C(=O)N[C@@H](CC(C)C)C(=O)N[C@@H](CCCCN)C(=O)N[C@@H](CCC(=O)O)C(N)=O)[C@@H](C)CC)[C@@H](C)CC", "values": [
      {"measurement": "ring closure, overall yield", "setting": "[2]", "value": 6.2, "unit": "%"}
    ]},
    {"smiles": "COc1ccc(C(=O)CCC(=O)CCC(=O)NCCC[C@H](NC(=O)[C@H](Cc2ccc(O)cc2)NC(C)=O)C(=O)N[C@@H](CCCNC(=N)N)C(=O)NCC(=O)N[C@@H](CC(=O)O)C(=O)N[C@@H](CCCNC(=O)CNN)C(=O)N[C@@H](CO)C(=O)N[C@@H](Cc2c[nH]c3ccccc23)C(N)=O)cc1", "values": [
      {"measurement": "ring closure, overall yield", "setting": "[2]", "value": 13.5, "unit": "%"}
    ]},
    {"smiles": "CC(=O)CCC(=O)CCC(=O)NCCC[C@H](NC(=O)[C@H](Cc1ccc(O)cc1)NC(C)=O)C(=O)N[C@@H](CCCNC(=N)N)C(=O)NCC(=O)N[C@@H](CC(=O)O)C(=O)N[C@@H](CCCNC(=O)CCC(=O)NN)C(=O)N[C@@H](CO)C(=O)N[C@@H](Cc1c[nH]c2ccccc12)C(N)=O", "values": [
      {"measurement": "ring closure, overall yield", "setting": "[1]; 31-membered ring", "value": 2.3, "unit": "%"}
    ]}
  ]
}
